system: Alopecurus myosuroides (ALOMY); experiment: Post-emergence herbicidal action, greenhouse pot trial; format: in vivo; details: Alopecurus myosuroides, 504 h, 320 g/ha, visual rating after about 3 weeks, read-out: Post-emergence effect at 320 g/ha against ALOMY in %
Experimental: (§1) Seeds of monocotyledonous and dicotyledonous weeds and crop plants are placed in sandy loam in plastic or organic planting pots, covered with soil and cultivated in a greenhouse under controlled growth conditions. 2 to 3 weeks after sowing, the trial plants are treated at the one-leaf stage. The compounds of the invention, formulated in the form of wettable powders (WP) or as emulsion concentrates (EC), are then sprayed onto the green parts of the plants as aqueous suspension or emulsion with addition of 0.5% additive at a water application rate equivalent to 600 l/ha. After about 3 weeks of keeping the trial plants in the greenhouse under optimum growth conditions, the effect of the preparations is rated visually in comparison to untreated controls. For example, 100% activity=the plants have died, 0% activity=like control plants.
(§2) Tables B1 to B14 below show the effects of selected compounds of the general formula (I) according to Table 1 on various harmful plants and at an application rate corresponding to 320 g/ha or lower, which were obtained by the trial procedure specified above. The appendices “a”, “b” and “c” give differentiation by dosage used with otherwise the same harmful plants tested.
(§3) As shown by results from Tables B1 to B19, inventive compounds of the general formula (I) in the case of post-emergence treatment have good herbicidal efficacy against harmful plants, for example Abutilon theophrasti (ABUTH), Alopecurus myosuroides (ALOMY), Amaranthus retroflexus (AMARE), Avena fatua (AVEFA), Digitaria sanguinalis (DIGSA), Echinochloa crus-galli (ECHCG), Bassia scoparia (KCHSC), Lolium rigidum (LOLRI), Matricaria inodora (MATIN), Pharbitis purpurea (PHBPU), Polygonum convolvulus (POLCO), Setaria viridis (SETVI), Veronica persica (VERPE) and Viola tricolor (VIOTR) at an application rate of 320 g of active substance or less per hectare, and good crop plant compatibility in the case of organisms such as Oryza sativa (ORYSA), Zea mays (ZEAMX), Brassica napus (BRSNW), Glycine max (GLXMA) and Triticum aestivum (TRZAS) at an application rate of 320 g or less per hectare.

Row | SMILES | pest or weed control at 320 g/ha
1 | COC(=O)C(Oc1nn(-c2ccccc2F)c(-c2ccc(F)nc2)c1Br)SC (stereo not shown) [Example I-10] | 100%
2 | CCOC(=O)C(Oc1nn(-c2ncccc2F)c(-c2ccc(F)nc2)c1Br)SC (stereo not shown) [Example I-13] | 80%

system: Matricaria inodora (MATIN); experiment: as above; format: in vivo; details: Tripleurospermum inodorum, 504 h, 80 g/ha, visual rating after about 3 weeks, read-out: Post-emergence effect at 80 g/ha against MATIN in %
Experimental: as §1, §2, §3

Row | SMILES | pest or weed control at 80 g/ha
3 | COC(=O)C(Oc1nn(-c2ccccc2F)c(-c2ccc(F)nc2)c1Br)SC (stereo not shown) [Example I-10] | 80%

same assay, conditions: Tripleurospermum inodorum, 504 h, 320 g/ha, visual rating after about 3 weeks, read-out: Post-emergence effect at 320 g/ha against MATIN in %

Row | SMILES | pest or weed control at 320 g/ha
4 | COC(=O)C(Oc1nn(-c2ccccc2F)c(-c2ccc(F)nc2)c1Br)SC (stereo not shown) [Example I-10] | 90%

system: Setaria viridis (SETVI); experiment: as above; format: in vivo; details: 80 g/ha, visual rating after about 3 weeks
Experimental: as §1, §2, §3

Row | SMILES | Post-emergence effect at 80 g/ha against SETVI in %
5 | COC(=O)C(Oc1nn(-c2ccccc2F)c(-c2ccc(F)nc2)c1Br)SC (stereo not shown) [Example I-10] | 90%
6 | CCOC(=O)C(Oc1nn(-c2ncccc2F)c(-c2ccc(F)nc2)c1Br)SC (stereo not shown) [Example I-13] | 80%

same assay, conditions: Setaria viridis, 504 h, 320 g/ha, visual rating after about 3 weeks, read-out: Post-emergence effect at 320 g/ha against SETVI in %

Row | SMILES | pest or weed control at 320 g/ha
7 | COC(=O)C(Oc1nn(-c2ccccc2F)c(-c2ccc(F)nc2)c1Br)SC (stereo not shown) [Example I-10] | 90%
8 | CCOC(=O)C(Oc1nn(-c2ncccc2F)c(-c2ccc(F)nc2)c1Br)SC (stereo not shown) [Example I-13] | 90%

system: Avena fatua (AVEFA); experiment: as above; format: in vivo; details: Avena fatua, 504 h, 320 g/ha, visual rating after about 3 weeks, read-out: Post-emergence effect at 320 g/ha against AVEFA in %
Experimental: as §1, §2, §3

Row | SMILES | pest or weed control at 320 g/ha
9 | CCOC(=O)C(Oc1nn(-c2ncccc2F)c(-c2ccc(F)nc2)c1Br)SC (stereo not shown) [Example I-13] | 90%

system: Viola tricolor (VIOTR); experiment: as above; format: in vivo; details: Viola tricolor, 504 h, 80 g/ha, read-out: Post-emergence effect against VIOTR
Experimental: as §1, §2, §3

Row | SMILES | pest or weed control at 80 g/ha
10 | COC(=O)C(Oc1nn(-c2ccccc2F)c(-c2ccc(F)nc2)c1Br)SC (stereo not shown) [Example I-10] | 80%

same assay, conditions: Viola tricolor, 504 h, 320 g/ha, read-out: Post-emergence effect against VIOTR

Row | SMILES | pest or weed control at 320 g/ha
11 | COC(=O)C(Oc1nn(-c2ccccc2F)c(-c2ccc(F)nc2)c1Br)SC (stereo not shown) [Example I-10] | 90%
12 | CCOC(=O)C(Oc1nn(-c2ncccc2F)c(-c2ccc(F)nc2)c1Br)SC (stereo not shown) [Example I-13] | 80%

system: Lolium rigidum (LOLRI); experiment: as above; format: in vivo; details: Lolium rigidum, 504 h, 320 g/ha, visual rating after about 3 weeks, read-out: Post-emergence effect at 320 g/ha against LOLRI in %
Experimental: as §1, §2, §3

Row | SMILES | pest or weed control at 320 g/ha
13 | COC(=O)C(Oc1nn(-c2ccccc2F)c(-c2ccc(F)nc2)c1Br)SC (stereo not shown) [Example I-10] | 90%
14 | CCOC(=O)C(Oc1nn(-c2ncccc2F)c(-c2ccc(F)nc2)c1Br)SC (stereo not shown) [Example I-13] | 90%

system: Digitaria sanguinalis (DIGSA); experiment: as above; format: in vivo; details: 80 g/ha, visual rating after about 3 weeks
Experimental: as §1, §2, §3

Row | SMILES | Post-emergence effect at 80 g/ha against DIGSA in %
15 | COC(=O)C(Oc1nn(-c2ccccc2F)c(-c2ccc(F)nc2)c1Br)SC (stereo not shown) [Example I-10] | 90%

same assay, conditions: Digitaria sanguinalis, 504 h, 320 g/ha, visual rating after about 3 weeks, read-out: Post-emergence effect at 320 g/ha against DIGSA in %

Row | SMILES | pest or weed control at 320 g/ha
16 | COC(=O)C(Oc1nn(-c2ccccc2F)c(-c2ccc(F)nc2)c1Br)SC (stereo not shown) [Example I-10] | 90%
17 | CCOC(=O)C(Oc1nn(-c2ncccc2F)c(-c2ccc(F)nc2)c1Br)SC (stereo not shown) [Example I-13] | 90%

system: Polygonum convolvulus (POLCO); experiment: as above; format: in vivo; details: Fallopia convolvulus, 504 h, 80 g/ha, visual rating after about 3 weeks, read-out: Post-emergence effect at 80 g/ha against POLCO in %
Experimental: as §1, §2, §3

Row | SMILES | pest or weed control at 80 g/ha
18 | COC(=O)C(Oc1nn(-c2ccccc2F)c(-c2ccc(F)nc2)c1Br)SC (stereo not shown) [Example I-10] | 80%
19 | CCOC(=O)C(Oc1nn(-c2ncccc2F)c(-c2ccc(F)nc2)c1Br)SC (stereo not shown) [Example I-13] | 80%

same assay, conditions: Fallopia convolvulus, 504 h, 320 g/ha, visual rating after about 3 weeks, read-out: Post-emergence effect at 320 g/ha against POLCO in %

Row | SMILES | pest or weed control at 320 g/ha
20 | COC(=O)C(Oc1nn(-c2ccccc2F)c(-c2ccc(F)nc2)c1Br)SC (stereo not shown) [Example I-10] | 80%
21 | CCOC(=O)C(Oc1nn(-c2ncccc2F)c(-c2ccc(F)nc2)c1Br)SC (stereo not shown) [Example I-13] | 90%

system: Amaranthus retroflexus (AMARE); experiment: as above; format: in vivo; details: 20 g/ha, visual rating after about 3 weeks
Experimental: as §1, §2, §3

Row | SMILES | Post-emergence effect at 20 g/ha against AMARE in %
22 | COC(=O)C(Oc1nn(-c2ccccc2F)c(-c2ccc(F)nc2)c1Br)SC (stereo not shown) [Example I-10] | 80%

same assay, conditions: Amaranthus retroflexus, 504 h, 80 g/ha, visual rating after about 3 weeks, read-out: Post-emergence effect at 80 g/ha against AMARE in %

Row | SMILES | pest or weed control at 80 g/ha
23 | COC(=O)C(Oc1nn(-c2ccccc2F)c(-c2ccc(F)nc2)c1Br)SC (stereo not shown) [Example I-10] | 80%
24 | CCOC(=O)C(Oc1nn(-c2ncccc2F)c(-c2ccc(F)nc2)c1Br)SC (stereo not shown) [Example I-13] | 80%

same assay, conditions: Amaranthus retroflexus, 504 h, 320 g/ha, visual rating after about 3 weeks, read-out: Post-emergence effect at 320 g/ha against AMARE in %

Row | SMILES | pest or weed control at 320 g/ha
25 | COC(=O)C(Oc1nn(-c2ccccc2F)c(-c2ccc(F)nc2)c1Br)SC (stereo not shown) [Example I-10] | 80%
26 | CCOC(=O)C(Oc1nn(-c2ncccc2F)c(-c2ccc(F)nc2)c1Br)SC (stereo not shown) [Example I-13] | 90%

system: Echinochloa crus-galli (ECHCG); experiment: as above; format: in vivo; details: Echinochloa crus-galli, 504 h, 80 g/ha, visual rating after about 3 weeks, read-out: Post-emergence effect at 80 g/ha against ECHCG in %
Experimental: as §1, §2, §3

Row | SMILES | pest or weed control at 80 g/ha
27 | COC(=O)C(Oc1nn(-c2ccccc2F)c(-c2ccc(F)nc2)c1Br)SC (stereo not shown) [Example I-10] | 80%
28 | CCOC(=O)C(Oc1nn(-c2ncccc2F)c(-c2ccc(F)nc2)c1Br)SC (stereo not shown) [Example I-13] | 80%

same assay, conditions: Echinochloa crus-galli, 504 h, 320 g/ha, visual rating after about 3 weeks, read-out: Post-emergence effect at 320 g/ha against ECHCG in %

Row | SMILES | pest or weed control at 320 g/ha
29 | COC(=O)C(Oc1nn(-c2ccccc2F)c(-c2ccc(F)nc2)c1Br)SC (stereo not shown) [Example I-10] | 90%
30 | CCOC(=O)C(Oc1nn(-c2ncccc2F)c(-c2ccc(F)nc2)c1Br)SC (stereo not shown) [Example I-13] | 90%

system: Abutilon theophrasti (ABUTH); experiment: as above; format: in vivo; details: Abutilon theophrasti, 504 h, 80 g/ha, visual rating after about 3 weeks, read-out: Post-emergence effect at 80 g/ha against ABUTH in %
Experimental: as §1, §2, §3

Row | SMILES | pest or weed control at 80 g/ha
31 | COC(=O)C(Oc1nn(-c2ccccc2F)c(-c2ccc(F)nc2)c1Br)SC (stereo not shown) [Example I-10] | 90%
32 | CCOC(=O)C(Oc1nn(-c2ncccc2F)c(-c2ccc(F)nc2)c1Br)SC (stereo not shown) [Example I-13] | 90%

same assay, conditions: Abutilon theophrasti, 504 h, 320 g/ha, visual rating after about 3 weeks, read-out: Post-emergence effect at 320 g/ha against ABUTH in %

Row | SMILES | pest or weed control at 320 g/ha
33 | COC(=O)C(Oc1nn(-c2ccccc2F)c(-c2ccc(F)nc2)c1Br)SC (stereo not shown) [Example I-10] | 90%
34 | CCOC(=O)C(Oc1nn(-c2ncccc2F)c(-c2ccc(F)nc2)c1Br)SC (stereo not shown) [Example I-13] | 90%

system: Pharbitis purpurea (PHBPU); experiment: as above; format: in vivo; details: Ipomoea purpurea, 504 h, 80 g/ha, visual rating after about 3 weeks, read-out: Post-emergence effect at 80 g/ha against PHBPU in %
Experimental: as §1, §2, §3

Row | SMILES | pest or weed control at 80 g/ha
35 | CCOC(=O)C(Oc1nn(-c2ncccc2F)c(-c2ccc(F)nc2)c1Br)SC (stereo not shown) [Example I-13] | 80%

same assay, conditions: Ipomoea purpurea, 504 h, 320 g/ha, visual rating after about 3 weeks, read-out: Post-emergence effect at 320 g/ha against PHBPU in %

Row | SMILES | pest or weed control at 320 g/ha
36 | COC(=O)C(Oc1nn(-c2ccccc2F)c(-c2ccc(F)nc2)c1Br)SC (stereo not shown) [Example I-10] | 80%
37 | CCOC(=O)C(Oc1nn(-c2ncccc2F)c(-c2ccc(F)nc2)c1Br)SC (stereo not shown) [Example I-13] | 80%

Reference: US20250026724A1, “(1,4,5-TRISUBSTITUTED 1H-PYRAZOL-3-YL)OXY-2-ALKYLTHIOALKYL ACIDS AND -ALKYL ACID DERIVATIVES, SALTS THEREOF AND USE THEREOF AS ACTIVE HERBICIDAL INGREDIENTS” (BAYER AKTIENGESELLSCHAFT, priority 2021, published 2025)
